Results reported in publication PMC6024778 (Viruses, 2018).
Structures can show the parent of a compound that is named as a salt. Where two headings read alike, the source gives them in different places.

Columns and labels:
MERS-CoV [1] = experiment: microbe, parasite or virus in culture; format: cell-based
in vitro [2] = conditions: human
[3] = tested on: MERS-CoV nucleocapsid (N) protein; format: cell-based
MERS-CoV [4] = format: cell-based
MERS-CoV [5] = format: cell-based; remark: listed apart in the source
HCoV-OC43 = experiment: microbe, parasite or virus in culture; format: cell-based, betacoronavirus OC43 strain; conditions: Betacoronavirus 1, OC43
HCoV-229E = experiment: microbe, parasite or virus in culture; format: cell-based; conditions: Human coronavirus 229E
rMERS-CoV = experiment: microbe, parasite or virus in culture; format: cell-based, MERS-CoV; conditions: Middle East respiratory syndrome-related coronavirus, Huh-7, 72 h
MERS-CoV [6] = format: cell-based; remark: listed apart in the source
[7] = tested on: Feline infectious peritonitis virus (FIPV); experiment: microbe, parasite or virus in culture; format: cell-based; conditions: Alphacoronavirus 1
in vitro [8] = conditions: cat
MERS-CoV [9] = format: cell-based; remark: listed apart in the source
MERS-CoV [10] = format: cell-based; remark: listed apart in the source
[11] = Middle East respiratory syndrome-related coronavirus, Huh-7, 72 h

Row | SMILES | EC50 (MERS-CoV [1]; read-out: EC50) | EC50 (MERS-CoV [1]; [11]) | CC50 (in vitro [2]) | further results
1 | CC(=O)c1ccc2c(c1)N(CCCN1CCN(CCO)CC1)c1ccccc1S2 [Acetophenazine maleate] | 11.2 ± 5 µM | – | – | CC50 (Huh-7 cells): 23.6 ± 3.8 µM
2 | CCN(CC)Cc1cc(Nc2ccnc3cc(Cl)ccc23)ccc1O [Amodiaquine dihydrochloride dehydrate] | 2.4 ± 0.7 µM | – | – | –
3 | CCN(CC)Cc1cc(Nc2ccnc3cc(Cl)ccc23)ccc1O [Amodiaquine dihydrochloride] | 2.1 ± 0.7 µM | – | – | –
4 | CCN(CC)CCCC(C)Nc1ccnc2cc(Cl)ccc12 (stereo not shown) [Chloroquine diphosphate] | – | 12 ± 3 µM | > 50 µM | –
5 | CN(C)CC/C=C1\c2ccccc2CSc2ccccc21 [Dosulepin hydrochloride] | – | 3.4 µM | 28.9 µM | –
6 | Nc1ccn([C@@H]2O[C@H](CO)[C@@H](O)C2(F)F)c(=O)n1 [Gemcitabine, gemcitabine hydrochloride] | – | 1.2 µM | – | viral N protein expression [3]: completely abolished; production of infectious MERS-CoV particles (MERS-CoV [4]): completely abolished
7 | CCN(CCO)CCCC(C)Nc1ccnc2cc(Cl)ccc12 (stereo not shown) [Hydroxychloroquine sulfate] | – | 13.3 ± 2.1 µM | > 50 µM | –
8 | OCCOCCN1CCN(C(c2ccccc2)c2ccc(Cl)cc2)CC1 (stereo not shown) [Hydroxyzine pamoate] | – | 14.4 ± 3.4 µM | > 50 µM | –
9 | COc1ccc2c(c1)N(C[C@H](C)CN(C)C)c1ccccc1S2 [Methotrimeprazine maleate salt] | 2.5 µM | – | – | CC50 (Huh-7 cells): 24.5 µM
10 | O=C(Nc1ccncc1)c1cc([N+](=O)[O-])ccc1Cl [N1-(4-pyridyl)-2-chloro-5-nitrobenzamide] | – | 10.5 ± 0.3 µM | > 50 µM | –
11 | COc1ccc(C2=N[C@@H](c3ccc(Cl)cc3)[C@@H](c3ccc(Cl)cc3)N2C(=O)N2CCNC(=O)C2)c(OC(C)C)c1 [Nutlin-3] | – | 6.9 ± 1.4 µM | 26.8 ± 1.6 µM | –
12 | CN1CCN(CCOc2cc(OC3CCOCC3)c3c(Nc4c(Cl)ccc5c4OCO5)ncnc3c2)CC1 [Saracatinib] | – | 2.9 ± 0.6 µM | – | intracellular viral genomic (ORF1a) and mRNA (upE) syntheses (MERS-CoV [5]): near complete inhibition; EC50 (HCoV-OC43): 5.1 µM; EC50 (HCoV-229E): 2.4 µM; EC50 (rMERS-CoV): 9.3 µM; selectivity index (SI) (MERS-CoV [1]): > 17; intracellular viral genomic RNA and mRNA expressions (MERS-CoV [6]): significant decrease; syntheses of intracellular viral genomic RNA and mRNAs (MERS-CoV [6]): severely affected; viral genomic RNA and mRNA syntheses (MERS-CoV [6]): near complete inhibition; EC50 [7]: 7 µM; CC50 (in vitro [8]): > 50 µM; reduction of viral titer (MERS-CoV [4]): marginal reduction; CC50 (Huh-7 cells; human): 57 ± 5.5 µM; reduction in infectious virus titers (MERS-CoV [9]): ~ 80%; antiviral activity (viral titer) (MERS-CoV [10]): less effective; reduction of MERS-CoV titer (MERS-CoV [10]): more pronounced; viral titer (MERS-CoV [10]): marked reduction
13 | CN1CCN(c2nc(C3=C(c4c[nH]c5ccccc45)C(=O)NC3=O)c3ccccc3n2)CC1 [Sotrastaurin] | – | ~9.7 µM | > 50 µM | –
